{"source": "patent US20100204136A1", "about": "“USE OF A PEPTIDE AS A THERAPEUTIC AGENT” (priority 2007, published 2010)", "key": {"MRC-5 cells": {"test_system": "MRC-5 cells", "conditions": "human, 6 days", "procedure": "For cytotoxicity testing, MRC-5 cells were seeded at 2,500 cells/well in 96 well plates using growth medium. […] The following day, peptide was added and tested in duplicates. After a 6 days incubation period, cell viability was measured using CellTiter 96 Solution (Promega). Plates were incubated for additional 4 hours at 37° C. Adhesive plate sealers were used in place of lids, the sealed plates were inverted several times to mix the soluble formazan product and the plate was read spectrophotometrically at 490/560 nm with a Molecular Devices Vmax plate reader."}, "HepG2-2.2.15 cells": {"test_system": "HepG2-2.2.15 cells", "experiment": "Cytotoxicity in HBV assay (dye uptake cell viability)", "type": "cell-based", "conditions": "test peptide 10 micrograms per ml"}, "HIV-1IIIB": {"test_system": "HIV-1IIIB", "experiment": "HIV-1 antiviral assay (CPE reduction, MTS)", "type": "cell-based", "conditions": "peptide 10 micrograms per ml; 6 days post-infection"}, "CEM-SS cells": {"test_system": "CEM-SS cells", "experiment": "Cytotoxicity in HIV-1 assay (MTS cell viability)", "conditions": "peptide 10 micrograms per ml"}}}
{"smiles": "Nc1nc(O)c2ncn(COC(CO)CO)c2n1", "note": "[Ganciclovir]", "values": [{"measurement": "% Cell viability", "setting": "MRC-5 cells", "value": 100, "unit": "%"}]}
{"smiles": "Nc1ccn([C@@H]2CS[C@H](CO)O2)c(=O)n1", "note": "[Compound 3TC]", "values": [{"measurement": "% Cell viability", "setting": "HepG2-2.2.15 cells", "value": 95.8, "unit": "%"}]}
{"smiles": "Cc1cn([C@H]2C[C@H](N=[N+]=[N-])[C@@H](CO)O2)c(=O)[nH]c1=O", "note": "[AZT]", "values": [{"measurement": "% CPE reduction in HIV-1 infected CEM-SS cells", "setting": "HIV-1IIIB", "value": 99, "unit": "%"}, {"measurement": "% Cell viability", "setting": "CEM-SS cells", "value": 97, "unit": "%"}]}
